Measurements published in patent publication US4761414A, “Substituted 1H-pyrimido[1,2-a-]-pyrido[3,4-e]pyrazine 6 oxides” (G. D. Searle & Co., priority 1986, dated 1988).
Converted amounts (≈) assume the structure as drawn. Counter-ions that a name gives are not always drawn. Like-named read-outs stand apart in the source and are kept apart here.

What was measured:
[1] = tested on: Clostridium perfringens NCTC 523; test: microbe, parasite or virus in culture; format: cell-based; conditions: Clostridium perfringens NCTC 523; procedures of Example 40; bishydrochloride
[2] = tested on: Clostridium perfringens NCTC 8237; test: microbe, parasite or virus in culture; format: cell-based; conditions: Clostridium perfringens NCTC 8237; procedures of Example 40; bishydrochloride
[3] = tested on: Costridium difficile NCIB 10666; test: MIC vs panel of anaerobes; format: cell-based, C. difficile; conditions: procedures of Example 40
[4] = tested on: Campylobacter fetus ss. jejuni ATCC 29428; test: MIC vs panel of anaerobes; format: cell-based; conditions: ATCC29428, procedures of Example 40
[5] = tested on: Campylobacter fetus ss. jejuni NCTC 10842; test: MIC vs panel of anaerobes; format: cell-based; conditions: NCTC10842, procedures of Example 40
[6] = tested on: Fusobacterium necrophorum ATCC 11295; test: MIC vs panel of anaerobes; format: cell-based; conditions: Fusobacterium necrophorum ATCC 11295; procedures of Example 40; bishydrochloride
[7] = tested on: B. melanogenicus ATCC 15032; test: MIC vs panel of anaerobes; format: cell-based; conditions: procedures of Example 40
P. anaerobius = test: MIC vs panel of anaerobes; format: cell-based; conditions: Peptostreptococcus anaerobius, procedures of Example 40
B. fragilis 23745 = conditions: p.o., after infection and twice daily for 2 days; log CFU/ml liver homogenate; test compound; bishydrochloride
B. fragilis NCTC 10581 = test: MIC/MBC against Bacteroides fragilis strain A (96-well microtitre plates, anaerobic chamber); format: cell-based; conditions: for MBC / MIC: Bacteroides fragilis; for MBC: NCTC10581, 99.9% reduction in viable count; for MIC: NCTC10581, 48 h
Protocol: (§1) The screening panel utilized in this Example consisted of 5 strains of Bacteroides fragilis. All assays were carried out in 96-well microtitre plates. If an isolate was obtained from either a culture collection or clinical source, the isolate was immediately inoculated into Wilkens-Chalgren broth (Oxoid) and incubated at 37° C. in an anaerobic chamber in an atmosphere of 85% nitrogen, 10% carbon dioxide, and 5% hydrogen for 48 hours. At the end of this time, the viable count was about 10^12 organisms/ml broth. A 1 ml aliquot of each culture was placed in an ampoule and quick frozen in acetone-dry ice mixture and stored in liquid nitrogen. When an inoculum was utilized in an assay, one of the ampoules was thawed and diluted with fresh broth to yield a suspension having a count of 5×10^5 organisms/ml. A 100 μl aliquot of this suspension was inoculated into each well of the microtitre plate. A 2 mg sample of the test compound was dissolved in 0.2 ml of a suitable solvent such as dimethylsulfoxide, polyethylene glycol 200 or methanol. […] After addition of the test solution the final inoculum level was 10^5 cells/ml. The plates were incubated for 48 hours at 37° C. in the anaerobic chamber. The Minimum Inhibitory Concentration (MIC) was read visually. The MIC is defined as the lowest concentration at which there is no detectable growth. The Minimum Bactericidal Concentration (MBC) was determined by taking 50 μl aliquot from each well and placing it in fresh medium. […] The strains of Bacteroides fragilis utilized in the above procedure are identified by letter in accordance with the following legend: |A B. fragilis NCTC 10581

Peptococcous magnus = test: MIC vs panel of anaerobes; format: cell-based; conditions: procedures of Example 40
Peptostreptococcus = test: MIC vs panel of anaerobes; format: cell-based; conditions: procedures of Example 40
B. fragilis NCTC 9343 = test: MIC/MBC against Bacteroides fragilis strain B; format: cell-based
Protocol: as §1, with “|B” for “|A”, “9343” for “10581”

B. fragilis NCTC 9344 = test: MIC/MBC against Bacteroides fragilis strain C; format: cell-based
Protocol: as §1, with “|C” for “|A”, “9344” for “10581”

[8] = tested on: B. fragilis MZ-R ATCC 11295; test: MIC/MBC against Bacteroides fragilis strain D; format: cell-based
Protocol: The screening panel utilized in this Example consisted of 5 strains of Bacteroides fragilis. All assays were carried out in 96-well microtitre plates. If an isolate was obtained from either a culture collection or clinical source, the isolate was immediately inoculated into Wilkens-Chalgren broth (Oxoid) and incubated at 37° C. in an anaerobic chamber in an atmosphere of 85% nitrogen, 10% carbon dioxide, and 5% hydrogen for 48 hours. At the end of this time, the viable count was about 10^12 organisms/ml broth. A 1 ml aliquot of each culture was placed in an ampoule and quick frozen in acetone-dry ice mixture and stored in liquid nitrogen. When an inoculum was utilized in an assay, one of the ampoules was thawed and diluted with fresh broth to yield a suspension having a count of 5×10^5 organisms/ml. A 100 μl aliquot of this suspension was inoculated into each well of the microtitre plate. A 2 mg sample of the test compound was dissolved in 0.2 ml of a suitable solvent such as dimethylsulfoxide, polyethylene glycol 200 or methanol. […] After addition of the test solution the final inoculum level was 10^5 cells/ml. The plates were incubated for 48 hours at 37° C. in the anaerobic chamber. The Minimum Inhibitory Concentration (MIC) was read visually. The MIC is defined as the lowest concentration at which there is no detectable growth. The Minimum Bactericidal Concentration (MBC) was determined by taking 50 μl aliquot from each well and placing it in fresh medium.

B. fragilis WS-1 = test: MIC/MBC against Bacteroides fragilis strain E; format: cell-based
Protocol: as §1, with “|E” for “|A”, “WS-1*” for “NCTC 10581”

Structure (SMILES): CC1(C)CN=C2C(c3ccccc3)=[N+]([O-])c3cccnc3N2C1 [Example 39, 2,3-dihydro-2,2-dimethyl-5-phenyl-1H-pyrimido[1,2-a]pyrido[3,2-e]pyrazine 6-oxide bishydrochloride]
- MIC [1]: 1.5 µg/mL
- MIC [2]: 6.2 µg/mL
- MIC ([3]; C. difficile NCIB 10666, bishydrochloride): 1.5 µg/mL
- MIC [4]: 50 µg/mL
- MIC [5]: 25 µg/mL
- MIC [6]: 1.5 µg/mL
- MIC [7]: 100 µg/mL
- MIC (P. anaerobius): 100 µg/mL
- DOSE GIVING 1 LOG REDUCTION (B. fragilis 23745): 0.7 mg/kg
- DOSE GIVING 1 LOG REDUCTION (molar) (B. fragilis 23745): 1.8 μM/Kg

Structure (SMILES): Cc1ncc([N+](=O)[O-])n1CCO [Metronidazole, metronidazole, reference compound]
- MBC, strain A (B. fragilis NCTC 10581; 99.9% reduction in viable count): 1.5 µg/mL (≈ 8.76 µM)
- MIC, strain A (B. fragilis NCTC 10581; 48 hours, 37° C., anaerobic): 1.5 µg/mL (≈ 8.76 µM)
- MBC (B. fragilis NCTC 10581): < 0.8 µg/mL
- MIC (B. fragilis NCTC 10581; 48 hours, 37° C., anaerobic): < 0.8 µg/mL
- MIC ([3]; Clostridioides difficile, NCIB10666, C. difficile NCIB 10666, read-out: MIC): < 0.8 µg/mL
- MIC [5]: 3.1 µg/mL (≈ 18.1 µM)
- MIC (Peptococcous magnus): < 0.8 µg/mL
- MIC (Peptostreptococcus): 100 µg/mL (≈ 584 µM)

Structure (SMILES): CCC1(C)CN=C2C(c3ccc(C)cc3)=[N+]([O-])c3cccnc3N2C1 (stereo not shown) [Example 35, 2,3-Dihydro-2-ethyl-2-methyl-5-(4-methylphenyl)-1H-pyrimido[1,2-a]pyrido[3,2-e]pyrazine 6-oxide]
- MBC (B. fragilis NCTC 10581): < 0.8 µg/mL
- MIC (B. fragilis NCTC 10581; 48 hours, 37° C., anaerobic): < 0.8 µg/mL
- MBC (B. fragilis NCTC 9343; NCTC9343, 99.9% reduction in viable count): < 0.8 µg/mL
- MIC (B. fragilis NCTC 9343; NCTC9343, 48 h, 48 hours, 37° C., anaerobic): < 0.8 µg/mL
- MBC (B. fragilis NCTC 9344; NCTC9344, 99.9% reduction in viable count): < 0.8 µg/mL
- MIC (B. fragilis NCTC 9344; NCTC9344, 48 h, 48 hours, 37° C., anaerobic): < 0.8 µg/mL
- MBC ([8]; ATCC11295, 99.9% reduction in viable count): < 0.8 µg/mL
- MIC ([8]; ATCC11295, 48 h, 48 hours, 37° C., anaerobic): < 0.8 µg/mL
- MBC (B. fragilis WS-1; WS1, 99.9% reduction in viable count): < 0.8 µg/mL
- MIC (B. fragilis WS-1; WS1, 48 h, 48 hours, 37° C., anaerobic): < 0.8 µg/mL
